# Patent US20210122730A1, “GLUCOCORTICOID RECEPTOR MODULATORS” (ORIC Pharmaceuticals, Inc., priority 2017, published 2021)
# What was measured:
# GR = biological target: T1, GR (Homo sapiens, UniProt P04150); experiment: In Vitro GR Luciferase Reporter Assay (antagonist mode, CHO-K1-GR-MMTV-Luc reporter cells); type: cell-based
# T1 construct: expressed in transfected cells; host or cells: CHO-K1
# T1 sequence (P04150 1-777): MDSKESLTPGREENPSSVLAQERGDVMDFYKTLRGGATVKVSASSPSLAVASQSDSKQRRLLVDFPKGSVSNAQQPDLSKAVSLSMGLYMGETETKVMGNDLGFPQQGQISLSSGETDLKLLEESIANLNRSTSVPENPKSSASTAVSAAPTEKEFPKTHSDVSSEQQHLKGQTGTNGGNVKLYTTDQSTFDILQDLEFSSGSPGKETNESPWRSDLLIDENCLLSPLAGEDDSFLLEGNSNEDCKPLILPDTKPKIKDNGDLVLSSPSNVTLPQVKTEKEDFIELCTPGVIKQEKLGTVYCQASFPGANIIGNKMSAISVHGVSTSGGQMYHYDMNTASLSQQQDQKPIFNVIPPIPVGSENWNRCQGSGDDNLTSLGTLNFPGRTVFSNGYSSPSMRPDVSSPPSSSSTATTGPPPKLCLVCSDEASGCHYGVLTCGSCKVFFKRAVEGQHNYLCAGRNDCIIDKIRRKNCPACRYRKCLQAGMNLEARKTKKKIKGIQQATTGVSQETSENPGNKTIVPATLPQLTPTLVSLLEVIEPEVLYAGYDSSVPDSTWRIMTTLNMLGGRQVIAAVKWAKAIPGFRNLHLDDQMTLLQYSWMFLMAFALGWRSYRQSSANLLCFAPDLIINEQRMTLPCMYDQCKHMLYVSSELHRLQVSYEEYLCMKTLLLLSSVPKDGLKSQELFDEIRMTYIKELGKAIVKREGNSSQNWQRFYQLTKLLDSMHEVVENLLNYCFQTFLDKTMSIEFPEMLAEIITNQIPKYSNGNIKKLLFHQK
# Method in brief: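 Antagonist mode: compounds (8 serial 1:5 dilutions) added to GR-MMTV-luciferase CHO-K1 reporter cells co-exposed to 10 nM dexamethasone final, in phenol red-free DMEM plus 10% CSS. After roughly 18-24 h at 37° C, OneGlo luminescence read and IC50 calculated.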
# CYP2C8 = biological target: T2, CYP2C8 (Homo sapiens, UniProt P10632); experiment: CYP Inhibition Assay (CYP2C8, human liver microsomes, paclitaxel substrate); type: in vitro ADME; conditions: pH 7.4; pooled human liver microsomes 0.1 mg/mL, probe substrate paclitaxel
# T2 construct: Pooled human microsomes were obtained from Sekisui XenoTech, KS; tissue Sekisui XenoTech, KS; host or cells: pooled human liver microsomes
# T2 sequence (P10632 1-490): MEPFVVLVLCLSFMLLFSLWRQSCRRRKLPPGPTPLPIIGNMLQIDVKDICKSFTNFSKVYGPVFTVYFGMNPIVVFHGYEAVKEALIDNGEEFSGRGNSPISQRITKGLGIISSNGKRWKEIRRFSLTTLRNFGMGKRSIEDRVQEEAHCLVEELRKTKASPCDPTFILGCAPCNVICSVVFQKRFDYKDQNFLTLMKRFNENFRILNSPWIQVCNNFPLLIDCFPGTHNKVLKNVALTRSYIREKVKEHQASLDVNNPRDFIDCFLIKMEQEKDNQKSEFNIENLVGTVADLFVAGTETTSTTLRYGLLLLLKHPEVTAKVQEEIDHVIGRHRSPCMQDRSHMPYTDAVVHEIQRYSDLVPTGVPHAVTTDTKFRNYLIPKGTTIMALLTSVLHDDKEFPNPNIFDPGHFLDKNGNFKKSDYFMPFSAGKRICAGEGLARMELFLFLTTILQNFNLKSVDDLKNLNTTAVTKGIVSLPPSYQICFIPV
# Method: Example B: CYP Inhibition Assay
# Objective: To assess the % inhibition of test compounds against CYP2C8 enzyme in human liver microsomes.
# Pooled human microsomes were obtained from Sekisui XenoTech, KS, and were used for in vitro assessment of compound inhibitory potential of the major drug metabolizing human CYP enzymes.
# Test compounds were dissolved in DMSO as 10 mM stock solutions and diluted to 200 µM in acetonitrile as working solutions. The total concentrations of DMSO and acetonitrile were 0.02% and 0.5%, respectively, in the assay.
# The assay was performed in duplicate in a 96-well plate. The reaction mixture ([…]) containing a final concentration of 0.1 mg/mL pooled human liver microsomes, 50 mM potassium phosphate, pH 7.4 buffer, was re-warmed at 37° C. for 5 minutes. The reaction was initiated with NADPH solution which was at 1 mM final concentration, and carried out for 5 minutes at 37° C. It was terminated by the addition of 3-fold volume of quench solution (1:1 acetonitrile:methanol with 0.1% formic acid and the internal standard of tolbutamide). The sample was vortexed, centrifuged at 4,000 rpm for 15 min at 4° C. The incubation in the presence of vehicle (0.02% DMSO and 0.5% acetonitrile) was used as the enzyme activity control. The analyses of metabolite 6α-hydroxypaclitaxel in supernatant was performed with LC-MS/MS method (Sciex API 4500 Qtrap coupled to a Shimadzu LC-20AD HPLC).
# The CYP enzyme activity was determined based on the formation of 6a-hydroxypaclitaxel metabolite. The % inhibition was calculated using this equation: % Inhibition=100×(1−Ainactivator/Avehicle), where Ainactivator is the CYP enzyme activity in the presence of test compound, and Avehicle is the CYP activity in the presence of vehicle.
# [1] = antagonist assay with 10 nM Dexamethasone, 18-24 hours
Structure (SMILES),"IC50 (GR; antagonist mode, 10 nM Dexamethasone) [nM]",inhibition at 5 min (CYP2C8) [%],IC50 (GR; [1]) [nM]
"CN(C(=O)[C@H]1CCC2=Cc3c(cnn3-c3ccc(F)cc3)C[C@]2(C(=O)c2cc(C(F)(F)F)ccn2)C1)c1cnn(C)c1 (single isomer, unassigned) [Example 122]",≤ 100,≤ 25,–
"CN([C@H]1CCC2=Cc3c(cnn3-c3ccc(F)cc3)C[C@]2(C(=O)c2cc(C(F)(F)F)ccn2)C1)S(=O)(=O)c1cnn(C)n1 [Example 90, N-((4aS,6S)-1-(4-fluorophenyl)-4a-(4-(trifluoromethyl)picolinoyl)-4,4a,5,6,7,8-hexahydro-1H-benzo[f]indazol-6-yl)-N,2-dimethyl-2H-1,2,3-triazole-4-sulfonamide]",–,50 to 75,≤ 100
"CCN([C@H]1CCC2=Cc3c(cnn3-c3ccc(F)cc3)C[C@]2(C(=O)c2cc(C(F)(F)F)ccn2)C1)S(=O)(=O)c1cnn(C)c1 [Example 91, N-ethyl-N-((4aS,6S)-1-(4-fluorophenyl)-4a-(4-(trifluoromethyl)picolinoyl)-4,4a,5,6,7,8-hexahydro-1H-benzo[f]indazol-6-yl)-1-methyl-1H-pyrazole-4-sulfonamide]",–,50 to 75,≤ 100
"CN([C@H]1CCC2=Cc3c(cnn3-c3ccc(F)cc3)C[C@]2(C(=O)c2ccc(C3CC3)cn2)C1)S(=O)(=O)c1cnn(C)c1 [Example 93, N-((4aS,6S)-4a-(5-cyclopropylpicolinoyl)-1-(4-fluorophenyl)-4,4a,5,6,7,8-hexahydro-1H-benzo[f]indazol-6-yl)-N,1-dimethyl-1H-pyrazole-4-sulfonamide]",–,75 to 90,≤ 100
"CN([C@H]1CCC2=Cc3c(cnn3-c3ccc(F)cc3)C[C@]2(C(=O)c2cc(C(F)(F)F)ccn2)C1)S(=O)(=O)C1CCOCC1 [Example 94, N-((4aS,6S)-1-(4-fluorophenyl)-4a-(4-(trifluoromethyl)picolinoyl)-4,4a,5,6,7,8-hexahydro-1H-benzo[f]indazol-6-yl)-N-methyltetrahydro-2H-pyran-4-sulfonamide]",–,50 to 75,≤ 100
"CN([C@H]1CCC2=Cc3c(cnn3-c3ccc(F)cc3)C[C@]2(C(=O)c2cc(C(F)(F)F)ccn2)C1)S(=O)(=O)c1ccc(Cl)cc1 [Example 99, 4-chloro-N-((4aS,6S)-1-(4-fluorophenyl)-4a-(4-(trifluoromethyl)picolinoyl)-4,4a,5,6,7,8-hexahydro-1H-benzo[f]indazol-6-yl)-N-methylbenzenesulfonamide]",–,25 to 50,≤ 100
"Cn1cc(C(=O)N(C2CC2)[C@H]2CCC3=Cc4c(cnn4-c4ccc(F)cc4)C[C@]3(C(=O)c3cc(C(F)(F)F)ccn3)C2)cn1 [Example 102, N-cyclopropyl-N-((4aS,6S)-1-(4-fluorophenyl)-4a-(4-(trifluoromethyl)picolinoyl)-4,4a,5,6,7,8-hexahydro-1H-benzo[f]indazol-6-yl)-1-methyl-1H-pyrazole-4-carboxamide]",–,75 to 90,≤ 100
"CN([C@H]1CCC2=Cc3c(cnn3-c3ccc(F)cc3)C[C@]2(C(=O)c2ccc(C(F)(F)F)cn2)C1)S(=O)(=O)c1cnn(C)n1 [Example 104, N-((4aS,6S)-1-(4-fluorophenyl)-4a-(5-(trifluoromethyl)picolinoyl)-4,4a,5,6,7,8-hexahydro-1H-benzo[f]indazol-6-yl)-N,2-dimethyl-2H-1,2,3-triazole-4-sulfonamide]",–,50 to 75,100 to 1000
"Cn1cnc(S(=O)(=O)N(CCF)[C@H]2CCC3=Cc4c(cnn4-c4ccc(F)cc4)C[C@]3(C(=O)c3ncc(C(F)(F)F)s3)C2)n1 [Example 112, N-(2-Fluoroethyl)-N-((4aS,6S)-1-(4-fluorophenyl)-4a-(5-(trifluoromethyl)thiazole-2-carbonyl)-4,4a,5,6,7,8-hexahydro-1H-benzo[f]indazol-6-yl)-1-methyl-1H-1,2,4-triazole-3-sulfonamide]",–,75 to 90,–

# Now from value to compound:
"IC50 (GR; antagonist mode, 10 nM Dexamethasone) [nM]",inhibition at 5 min (CYP2C8) [%],IC50 (GR; [1]) [nM],Structure (SMILES)
–,50 to 75,≤ 100,"CN([C@H]1CCC2=Cc3c(cnn3-c3ccc(F)cc3)C[C@]2(C(=O)c2ccccn2)C1)S(=O)(=O)c1ccc(Cl)cc1 [Example 4, 4-Chloro-N-((4aS,6S)-1-(4-fluorophenyl)-4a-picolinoyl-4,4a,5,6,7,8-hexahydro-1H-benzo[f]indazol-6-yl)-N-methylbenzenesulfonamide]"
–,75 to 90,≤ 100,"CCn1ncc(S(=O)(=O)[C@H]2CCC3=Cc4c(cnn4-c4ccc(F)cc4)C[C@]3(C(=O)c3cc(C(F)(F)F)ccn3)C2)n1 [Example 52, ((4aS,6S)-6-((2-ethyl-2H-1,2,3-triazol-4-yl)sulfonyl)-1-(4-fluorophenyl)-1,4,5,6,7,8-hexahydro-4aH-benzo[f]indazol-4a-yl)(4-(trifluoromethyl)pyridin-2-yl)methanone]"
–,≤ 25,≤ 100,"O=C(c1ccc(C(F)(F)F)cn1)[C@]12Cc3cnn(-c4ccc(F)cc4)c3C=C1CC[C@H](S(=O)(=O)c1ccc(F)cc1)C2 [Example 55, ((4aS,6S)-1-(4-fluorophenyl)-6-((4-fluorophenyl)sulfonyl)-1,4,5,6,7,8-hexahydro-4aH-benzo[f]indazol-4a-yl)(5-(trifluoromethyl)pyridin-2-yl)methanone]"
–,75 to 90,≤ 100,"CC(C)n1ncc(S(=O)(=O)[C@H]2CCC3=Cc4c(cnn4-c4ccc(F)cc4)C[C@]3(C(=O)c3cc(C(F)(F)F)ccn3)C2)n1 [Example 56, ((4aS,6S)-1-(4-fluorophenyl)-6-((2-isopropyl-2H-1,2,3-triazol-4-yl)sulfonyl)-1,4,5,6,7,8-hexahydro-4aH-benzo[f]indazol-4a-yl)(4-(trifluoromethyl)pyridin-2-yl)methanone]"
–,≤ 25,≤ 100,"Cn1cc(S(=O)(=O)[C@H]2CCC3=Cc4c(cnn4-c4ccc(F)cc4)C[C@]3(C(=O)c3ccc(C(F)(F)F)cn3)C2)cn1 [Example 69, ((4aS,6S)-1-(4-fluorophenyl)-6-((1-methyl-1H-pyrazol-4-yl)sulfonyl)-1,4,5,6,7,8-hexahydro-4aH-benzo[f]indazol-4a-yl)(5-(trifluoromethyl)pyridin-2-yl)methanone]"
–,25 to 50,≤ 100,"CN([C@H]1CCC2=Cc3c(cnn3-c3ccc(F)cc3)C[C@]2(C(=O)c2cc(C(F)(F)F)ccn2)C1)S(=O)(=O)c1cnn(C)c1 [Example 81, N-((4aS,6S)-1-(4-fluorophenyl)-4a-(4-(trifluoromethyl)picolinoyl)-4,4a,5,6,7,8-hexahydro-1H-benzo[f]indazol-6-yl)-N,1-dimethyl-1H-pyrazole-4-sulfonamide]"
